Data: patent US20260345619A1 (Principia Biopharma Inc., priority 2023, published 2026)
pIC50: −log10 of the molar value.

Experiments:
[1] = Participant disposition: completion, discontinuation and reasons; type: in vivo, human
Description: Participants that met the criteria for a LOAC, at any time during the randomized IMP treatment phase, were to (be): • Discontinue early from IMP treatment, • Evaluated and receive treatment by the Investigator with standard of care according to standard medical practice. If practicable and safe, the participant was to undergo EOT Visit (Visit 14) assessment prior to the administration of rescue medications. • Resume their individual prescreening ICS/LABA background therapy and, • Followed for safety during a 4-week Post IMP Treatment Period.
Participants who discontinued IMP treatment prior to completing the 12-week IMP treatment (due to LOAC or due to early treatment discontinuation), were to be evaluated as soon as possible at the individual participant's EOT Visit and using procedures as planned for the EOT Visit at Week 12 (Visit 14). At their EOT visit, participants were to resume their prescreening ICS/LABA background therapy or appropriate therapy as needed per treating physician were to be resumed after the EOT study assessments had been performed and entered the 4-week safety follow-up period/Post IMP Treatment Period, concluding with the EOS Visit (Visit 16).

[2] = healthy volunteers; cited from earlier work
[3] = Asthma Nighttime Symptom Diary (ANSD) score; type: in vivo, human; details: for LS mean difference versus placebo, ANSD symptom score: Week 12
Description: ADSD and ANSD are PRO measures developed by the PRO Consortium′ Asthma Working Group. Both instruments have been designed to measure asthma symptoms in adult and adolescent (12 years of age and older) patients diagnosed with mild to severe asthma. ADSD and ANSD assess asthma severity based on patient self-report of asthma core symptoms.
Other efficacy endpoints included: • Change from baseline in pre- and post-bronchodilator FEV1 and other lung function measurement (peak expiratory flow (PEF), forced vital capacity (FVC), forced expiratory flow (FEF) 25-75%) at each spirometry endpoint. • Asthma Control Questionnaire-5 (ACQ-5) score change from baseline at EOT and at each assessment time point. • Asthma Quality of Life Questionnaire with Standardized Activities (AQLQ(S)) Self-Administered score change from baseline at EOT and at each assessment time point. • Change from baseline at EOT and change from baseline at each week for asthma symptom scores in the morning and evening (ADSD and ANSD). Questionnaire was to be administered daily and score averaged weekly for analysis. • Change from baseline at EOT and change from baseline at each week in number of inhalations/day of albuterol or levalbuterol for symptom relief.
The ADSD and ANSD are PRO measures developed by the PRO Consortium′ Asthma Working Group. Both instruments have been designed to measure asthma symptoms in adult and adolescent (12 years of age and older) patients diagnosed with mild to severe asthma. ADSD and ANSD assess asthma severity based on patient self-report of asthma core symptoms, i.e., difficulty of breathing; wheezing; shortness of breath; chest tightness; chest pain; and cough. Patients were asked to complete the ADSD every night before they went to bed, thinking about their asthma symptoms on that day, from when they got up this morning until then; the ANSD when getting up, thinking about their asthma symptoms from the previous night from when they went to bed until then.
Both the ADSD and ANSD are composed of 6 items rated using an 11-point NRS that ranges from 0=None to 10=As bad as you can imagine (Gater et al. 2016). The participants were to record their daytime and nighttime asthma symptoms in an electronic diary, once in the evening and once in the morning, respectively. The participants were to complete the ADSD and the ANSD.

ERBB4 = details: cited from earlier work

In the case of `CC(C)(C=C(C#N)C(=O)N1CCC[C@@H](n2nc(-c3ccc(Oc4ccccc4)cc3F)c3c(N)ncnc32)C1)N1CCN(C2COC2)CC1` (mixture of isomers) [rilzabrutinib, (R)-2-[3-[4-amino-3-(2-fluoro-4-phenoxy-phenyl)pyrazolo[3,4-d]pyrimidin-1-yl]piperidine-1-carbonyl]-4-methyl-4-[4-(oxetan-3-yl)piperazin-1-yl]pent-2-enenitrile], the “Status at last contact: Dead” value ([1]; 400 mg BID (N = 32)) was 0 n (%), the “permanent study intervention discontinuation: Adverse event” value ([1]; 400 mg BID (N = 32)) was 2 (6.3) n (%) and the “permanent study intervention discontinuation: Adverse event not related to COVID-19” value ([1]; 400 mg BID (N = 32)) was 2 (6.3) n (%). The “permanent study intervention discontinuation: Adverse event related to COVID-19” value ([1]; 400 mg BID (N = 32)) was 0 n (%), the “permanent study intervention discontinuation: Lack of efficacy” value ([1]; 400 mg BID (N = 32)) was 0 n (%) and the “permanent study intervention discontinuation: Loss of asthma control (LOAC)” value ([1]; 400 mg BID (N = 32)) was 8 (25.0) n (%). The “study discontinuation: Adverse event” value ([1]; 400 mg BID (N = 32)) was 1 (3.1) n (%), the “study intervention withdrawal by subject: Adverse event” value ([1]; 400 mg BID (N = 32)) was 1 (3.1) n (%) and the “Status at last contact: Dead” value ([1]; 400 mg TID (N = 64)) was 0 n (%). For the same compound, the “permanent study intervention discontinuation: Adverse event” value ([1]; 400 mg TID (N = 64)) was 5 (7.8) n (%), the “permanent study intervention discontinuation: Adverse event not related to COVID-19” value ([1]; 400 mg TID (N = 64)) was 2 (3.1) n (%) and the “permanent study intervention discontinuation: Adverse event related to COVID-19” value ([1]; 400 mg TID (N = 64)) was 3 (4.7) n (%). The “permanent study intervention discontinuation: Lack of efficacy” value ([1]; 400 mg TID (N = 64)) was 1 (1.6) n (%), the “permanent study intervention discontinuation: Loss of asthma control (LOAC)” value ([1]; 400 mg TID (N = 64)) was 10 (15.6) n (%) and the “study discontinuation: Adverse event” value ([1]; 400 mg TID (N = 64)) was 0 n (%). The “study intervention withdrawal by subject: Adverse event” value ([1]; 400 mg TID (N = 64)) was 2 (3.1) n (%), the “discontinuation due to an adverse event” value [2] was “no participants discontinued treatment due to an adverse event” and the “most commonly reported adverse events” value [2] was “gastrointestinal adverse events, including nausea/vomiting and diarrhea”. The “serious adverse events or deaths” value [2] was “No serious adverse events or deaths were reported”, the “LS mean ANSD change from baseline at Week 12” value ([3]; 400 mg BID) was −0.35 and the “LS mean difference versus placebo, ANSD symptom score” value ([3]; 400 mg BID, 95% CI −1.33, −0.03, nominal p=0.0390) was −0.68. For the same compound, the “LS mean ANSD change from baseline at Week 12” value ([3]; 400 mg TID) was −0.48, the “LS mean difference versus placebo, ANSD symptom score” value ([3]; 400 mg TID, 95% CI −1.13, 0.06, nominal p=0.0758) was −0.54 and the “ANSD symptom score (in words)” value ([3]; both cohorts, Week 12, all components) was “improvement in ADSD and ANSD symptom score”. For the same compound, the pIC50 (ERBB4) was 7.96.
